Patent US20260158156A1, “SPECIFIC CONJUGATION OF AN ANTIBODY” (priority 2021, published 2026)

System: 8226-2A1 cells
Assay: MTT in vitro cytotoxicity assay of BCMA antibody conjugates, 8226-2A1
Assay type: cell-based
Conditions: 15000 cells, 96 h incubation
Method: The cell lines used in the cytotoxicity assays were (1). […] To run the assay, the cells (180 μl, 6000 cells) were added to each well in a 96-well plate and incubated for 24 hours at 37° C. with 5% CO2. Next, the cells were treated with test compounds (20 μl) at various concentrations in appropriate cell culture medium (total volume, 0.2 mL). The control wells contain cells and the medium but lack the test compounds. […] MTT (5 mg/mL) was then added to the wells (20 μl) and the plates were incubated for 1.5 hr at 37° C. The medium was carefully removed and DMSO (180 μl) was added afterward. After it was shaken for 15 min, the absorbance was measured at 490 nm and 570 nm with a reference filter of 620 nm. The inhibition % was calculated according to the following equation: inhibition %=[1−(assay-blank)/(control-blank)]×100.

Question: How did the IC50 turn out when CC(=O)O[C@H]1C(=O)[C@@]2(C)[C@H]([C@H](OC(=O)c3ccccc3)[C@]3(O)C[C@H](OC(=O)[C@H](O)[C@@H](NC(=O)c4ccccc4)c4ccccc4)C(C)=C1C3(C)C)[C@]1(OC(C)=O)CO[C@@H]1C[C@@H]2O [Paclitaxel] was run?
Answer: 3.71 nM
